# In US8889423B2, “Method for analysis of compound-binding ability of protein” (Eisai R & D Management Co., Ltd., priority 2005, dated 2014):
# Tests used:
# [1] = molecular target: T1, AHCY (S-adenosylhomocysteine hydrolase) (Homo sapiens, UniProt P23526); assay: Affinity chromatography on immobilized compound with urea step elution, LC/MS peak intensity ratio; format: binding; conditions: for peak intensity ratio (peak area of the labeled protein/peak area of the non-labeled protein): HCT116 extract
# T1 construct: Insoluble fractions were removed by centrifugation to prepare soluble fractions; endogenous in cells; host or cells: HCT116
# T1 sequence (P23526 2-432 limits assumed): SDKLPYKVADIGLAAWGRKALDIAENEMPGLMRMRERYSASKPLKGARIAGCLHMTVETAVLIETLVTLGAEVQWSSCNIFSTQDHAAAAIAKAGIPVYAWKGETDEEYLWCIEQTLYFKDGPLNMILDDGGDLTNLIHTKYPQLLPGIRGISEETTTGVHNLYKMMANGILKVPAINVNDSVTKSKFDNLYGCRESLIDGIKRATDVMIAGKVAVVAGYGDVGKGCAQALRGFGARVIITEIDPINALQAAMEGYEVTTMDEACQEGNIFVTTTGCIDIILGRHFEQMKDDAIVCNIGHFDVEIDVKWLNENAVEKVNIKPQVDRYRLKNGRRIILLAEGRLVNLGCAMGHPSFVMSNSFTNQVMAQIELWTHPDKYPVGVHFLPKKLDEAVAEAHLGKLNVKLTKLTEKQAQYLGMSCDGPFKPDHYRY
# Description: (§1) About 10 mg of the compound represented by formula (1):
# (§2) [drawing 1] was dissolved in 4 mL of tetrahydrofuran (THF) and 4 mL of methanol (MeOH), and 4 mL of water was added thereto.
# (§3) 6 mL of the resultant solution was diluted with 18 mL of THF/MeOH/Water=1/1/1 (v/v/v), and was added to 25 mL of Affi-gel 10 (produced by BioRad, Cat No. 153-6099), which had been washed with THF/MeOH/Water=1/1/1 (v/v/v) beforehand.
# (§4) To the resultant substance, 100 μL of triethylamine (produced by Tokyo Chemical Industry Co., Ltd., Cat No. T0424) was added thereto and incubated at room temperature for 2 hours. Then, 500 μL of 2-aminoethanol (produced by Tokyo Chemical Industry Co., Ltd., Cat No. A0297) was added thereto and incubated at room temperature for 2 hours. The resultant gel was fully washed with THF/MeOH/Water=1/1/1 (v/v/v), and was stored at 4° C. after replacement with a methanol solution. The resultant gel was set to be used as an affinity gel. By this reaction, the compound represented by formula (1) was bound at a ratio of about 0.2 mg for 1 mL of gel. A column was filled with about 0.9 ml of the produced affinity gel. Thus, an affinity chromatography column was produced.
# (§5) Human colon glandular cancer cell line HCT116 (ATCC) was cultured. Used as a medium was RPMI-1640 (Sigma, R-7130) containing 10% fetal calf serum (MOREGATE, BATCH 32300102), 100 U/ml of penicillin G; and 100 μg/ml of streptomycin (Invitrogen, 15140-122). As for the RPMI-1640 medium, a powder medium which contains none of L-glutamine, L-lysine, L-methionine, L-leucine, and sodium hydrogen carbonate was selected. Then, components absent in the medium were added. The absent components were added as follows. L-glutamine (produced by Sigma, G-8540), L-lysine (produced by Sigma, L-9037), L-methionine (produced by Sigma, M-5308), and sodium hydrogen carbonate (Wako Pure Chemical Industries, Ltd., 191-01305) were added in 0.3 g/L, 0.04 g/L, 0.015 g/L, and 2 g/L, respectively; and then naturally-occurring L-leucine and L-leucine labeled with a stable isotope ^13C (six) (Cambridge Isotope Laboratories, CLM-2262) were separately added in 0.05 g/L. Each medium thus prepared was used to culture cells in 5% CO2 at 37° C. The cells obtained by such culturing were used in the following tests as cells cultured in a naturally-occurring medium and cells cultured in a stable isotope medium, respectively.
# (§6) Cells cultured in the naturally-occurring medium were provided in an amount corresponding to ten 15-cm diameter plates. Cells cultured in the stable isotope medium were provided in an amount corresponding to ten 15-cm diameter plates. The cells were collected. The cells were solubulized with about 2 ml of M-PER (PIERCE, 78501) per 15-cm diameter plate. Insoluble fractions were removed by centrifugation to prepare soluble fractions. The soluble fractions thus obtained were set to be used as a protein extract liquid metabolically labeled with a stable isotope and a protein extract liquid not metabolically labeled with a stable isotope, respectively. To these protein extract liquids (about 20 ml each), a quadruple amount of PBS was added (final amount: about 100 ml each).
# (§7) Next, about 0.9 ml of affinity gel was put into an open column, and a diluted protein extract liquid metabolically labeled with a stable isotope was added to the open column from above and was naturally dropped. Then, 10 ml of PBS containing 1 M NaCl was flown to this column. Next, 7 ml of PBS containing 1 M urea and 0.01% CHAPS, 7 ml of PBS containing 2 M urea and 0.01% CHAPS, 7 ml of PBS containing 4 M urea and 0.01% CHAPS, and 7 ml of PBS containing 8 M urea and 0.01% CHAPS were sequentially flown, and the eluted fractions were collected (4 fractions in total).
# (§8) In parallel with the above operation, a diluted protein extract liquid not metabolically labeled with a stable isotope was added to 0.9 ml of affinity gel from above and was naturally dropped. Then, 10 ml of PBS containing 1 M NaCl was flown to this column. […]
# [2] = molecular target: T2, MTAP (5′-methylthioadenosine phosphorylase) (Homo sapiens, UniProt Q13126); assay: as above; format: binding; conditions: for peak intensity ratio (peak area of the labeled protein/peak area of the non-labeled protein): HCT116 extract
# T2 construct: Insoluble fractions were removed by centrifugation to prepare soluble fractions; endogenous in cells; host or cells: HCT116
# T2 sequence (Q13126 1-283): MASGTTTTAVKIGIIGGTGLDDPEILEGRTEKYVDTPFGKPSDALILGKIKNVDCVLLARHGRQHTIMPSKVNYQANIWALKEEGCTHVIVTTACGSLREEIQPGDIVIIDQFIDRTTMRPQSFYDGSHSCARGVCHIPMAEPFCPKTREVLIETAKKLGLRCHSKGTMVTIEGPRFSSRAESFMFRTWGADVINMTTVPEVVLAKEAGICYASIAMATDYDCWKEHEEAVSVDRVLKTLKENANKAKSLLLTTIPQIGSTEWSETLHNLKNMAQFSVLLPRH
# Description: as §1, §2, §3, §4, §5, §6, §7, §8
# [3] = molecular target: T3, PCMT1 (protein-L-isoaspartate (D-aspartate) O-methyltransferase) (Homo sapiens, UniProt P22061); assay: as above; format: binding; conditions: for peak intensity ratio (peak area of the labeled protein/peak area of the non-labeled protein): HCT116 extract
# T3 construct: Insoluble fractions were removed by centrifugation to prepare soluble fractions; endogenous in cells; host or cells: HCT116
# Description: as §1, §2, §3, §4, §5, §6, §7, §8
# [4] = molecular target: T4, SPRY4 (sprouty homolog 4) (Homo sapiens, UniProt Q9C004); assay: as above; format: binding; conditions: for peak intensity ratio (peak area of the labeled protein/peak area of the non-labeled protein): HCT116 extract
# T4 construct: Insoluble fractions were removed by centrifugation to prepare soluble fractions; endogenous in cells; host or cells: HCT116
# T4 sequence (Q9C004 1-299): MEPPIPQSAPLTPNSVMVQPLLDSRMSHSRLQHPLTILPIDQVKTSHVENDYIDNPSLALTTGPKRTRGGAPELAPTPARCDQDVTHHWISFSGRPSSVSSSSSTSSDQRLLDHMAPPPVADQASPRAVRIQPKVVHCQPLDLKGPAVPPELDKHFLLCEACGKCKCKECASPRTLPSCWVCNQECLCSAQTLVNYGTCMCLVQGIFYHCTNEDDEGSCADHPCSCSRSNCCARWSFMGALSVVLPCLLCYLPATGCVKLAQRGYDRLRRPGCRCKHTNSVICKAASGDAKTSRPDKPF
# Description: as §1, §2, §3, §4, §5, §6, §7, §8
# [5] = system: OS9 (amplified in osteosarcoma isoform 1-4 precursor); assay: as above; format: binding, Human; conditions: for peak intensity ratio (peak area of the labeled protein/peak area of the non-labeled protein): HCT116 extract
# Description: as §1, §2, §3, §4, §5, §6
# Next, about 0.9 ml of affinity gel was put into an open column, and a diluted protein extract liquid metabolically labeled with a stable isotope was added to the open column from above and was naturally dropped. Then, 10 ml of PBS containing 1 M NaCl was flown to this column. […]
# [6] = system: proteins of HCT116 cell extract (AHCY, PCMT1, OS9, SPRY4); assay: Ranking of binding ability of proteins to the immobilized compound; parameters: species or system Human; conditions: from highest-peak fraction and from ratios in the 8 M urea fraction
# Description: as §7
# In parallel with the above operation, a diluted protein extract liquid not metabolically labeled with a stable isotope was added to 0.9 ml of affinity gel from above and was naturally dropped. Then, 10 ml of PBS containing 1 M NaCl was flown to this column. Next, 12 ml of PBS containing 8 M urea and 0.01% CHAPS was flown, and the eluted fractions were collected to be used as an internal standard fraction.
# 3 ml of the internal standard fraction was added to each of the four fractionated samples and mixed together. […]
# Quantitation was to be performed at the peak of the peptides containing leucine. […] Peaks forming a pair were found, and the peak intensity ratio thereof was automatically calculated. In this manner, proteins were identified and the peak intensity ratio was calculated using the constructed software. […]
# T3 sequence (P22061 whole entry): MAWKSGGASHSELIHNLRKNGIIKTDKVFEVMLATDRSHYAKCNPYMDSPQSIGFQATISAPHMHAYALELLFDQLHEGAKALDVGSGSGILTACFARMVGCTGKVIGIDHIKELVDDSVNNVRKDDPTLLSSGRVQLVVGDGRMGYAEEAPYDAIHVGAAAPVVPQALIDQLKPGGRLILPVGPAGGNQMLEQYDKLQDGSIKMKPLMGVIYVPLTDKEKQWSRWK
smiles,measurement,setting,value
NCc1ccc(S(=O)(=O)Nc2cccc3c(Cl)c[nH]c23)cc1 [formula (1)],peak intensity ratio (peak area of the labeled protein/peak area of the non-labeled protein),[1]; 1M Urea fraction,0.63
same,peak intensity ratio (peak area of the labeled protein/peak area of the non-labeled protein),[1]; 2M Urea fraction,0.99
same,peak intensity ratio (peak area of the labeled protein/peak area of the non-labeled protein),[1]; 4M Urea fraction,1.88
same,peak intensity ratio (peak area of the labeled protein/peak area of the non-labeled protein),[1]; 8M Urea fraction,3.27
same,fraction with the highest peak,"[1]; elution with 1, 2, 4, 8 M urea",8 M urea fraction
same,peak intensity ratio (peak area of the labeled protein/peak area of the non-labeled protein),[2]; 1M Urea fraction,0.77
same,peak intensity ratio (peak area of the labeled protein/peak area of the non-labeled protein),[2]; 2M Urea fraction,0.78
same,peak intensity ratio (peak area of the labeled protein/peak area of the non-labeled protein),[2]; 4M Urea fraction,0.71
same,peak intensity ratio (peak area of the labeled protein/peak area of the non-labeled protein),[2]; 8M Urea fraction,0.88
same,peak intensity ratio,[2]; all the four urea fractions,about 0.8
same,peak intensity ratio (peak area of the labeled protein/peak area of the non-labeled protein),[3]; 1M Urea fraction,1.14
same,peak intensity ratio (peak area of the labeled protein/peak area of the non-labeled protein),[3]; 2M Urea fraction,1.57
same,peak intensity ratio (peak area of the labeled protein/peak area of the non-labeled protein),[3]; 4M Urea fraction,2.52
same,peak intensity ratio (peak area of the labeled protein/peak area of the non-labeled protein),[3]; 8M Urea fraction,1.02
same,fraction with the highest peak,"[3]; elution with 1, 2, 4, 8 M urea",4 M urea fraction
same,peak intensity ratio (peak area of the labeled protein/peak area of the non-labeled protein),[4]; 1M Urea fraction,3.70
same,peak intensity ratio (peak area of the labeled protein/peak area of the non-labeled protein),[4]; 2M Urea fraction,1.17
same,peak intensity ratio (peak area of the labeled protein/peak area of the non-labeled protein),[4]; 4M Urea fraction,0.83
same,peak intensity ratio (peak area of the labeled protein/peak area of the non-labeled protein),[4]; 8M Urea fraction,0.67
same,fraction with the highest peak,"[4]; elution with 1, 2, 4, 8 M urea",1 M urea fraction
same,peak intensity ratio (peak area of the labeled protein/peak area of the non-labeled protein),[5]; 1M Urea fraction,1.24
same,peak intensity ratio (peak area of the labeled protein/peak area of the non-labeled protein),[5]; 2M Urea fraction,3.57
same,peak intensity ratio (peak area of the labeled protein/peak area of the non-labeled protein),[5]; 4M Urea fraction,1.62
same,peak intensity ratio (peak area of the labeled protein/peak area of the non-labeled protein),[5]; 8M Urea fraction,0.73
same,fraction with the highest peak,"[5]; elution with 1, 2, 4, 8 M urea",2 M urea fraction
same,"binding ability of the proteins to the compound, ordered from highest to lowest",[6],"AHCY, PCMT1, OS9 and SPRY4"
